Earlier results in patent US10500182B2, “Compositions of ketogenic sources, micronutrients and phytochemicals for prophylaxis and mitigation of migraine headache” (priority 2018, dated 2019).

How the values were obtained:
migraine [1] = conditions: oral and intravenous supplementation, migraineurs
migraine [2] = conditions: ten percent solution applied topically to the forehead and temples

Row | Compound | reduction of migraine frequency and severity (migraine [1]) | migraine pain and nausea (migraine [2])
1 | [Mg+2] [magnesium, Magnesium] | more than 40% | 
2 | CC1CCC(C(C)C)C(O)C1 (centres unmarked) [menthol] |  | effective at terminating migraine pain and easing nausea
